Test results as given in US10059667B2, “Antidiabetic compounds” (MERCK SHARP & DOHME CORP., priority 2014, dated 2018).

Columns and labels:
[1] = target: T1, Human GPR40 (Homo sapiens (Human), UniProt O14842); assay: Inositol Phosphate Turnover (IP1) Assay 1, HEK cells stably expressing human GPR40, 3H-inositol SPA; format: cell-based; settings: HEK cells stably expressing human GPR40, 96-well
Procedure, shortened: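 HEK cells stably expressing human GPR40, labelled 18 h with 3H-myo-inositol in inositol-free medium with 0.4% human or mouse albumin. LiCl added 20 min at 37 degrees, then compound 60 min at 37 degrees; formic acid lysates counted by YSi SPA beads for inositol phosphates.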

[2] = target: T1, Human GPR40; assay: FLIPR assay, agonist-induced calcium mobilization in GPR40/CHO NFAT BLA cells; format: cell-based
Procedure: Human and mouse GPR40 stable cell-lines were generated in CHO cells stably expressing NFAT BLA (Beta-lactamase). A human GPR40 stable cell-line was generated in HEK cells stably expressing the aequorin expressing reporter. The expression plasmids were transfected using lipofectamine (Life Technologies) following manufacturer's instructions. Stable cell-lines were generated following drug selection.
FLIPR (Fluorimetric Imaging Plate Reader, Molecular Devices) assays were performed to measure agonist-induced calcium mobilization of the stable clones. For the FLIPR assay, one day before assay, GPR40/CHO NFAT BLA cells were seeded into black-wall-clear-bottom 384-well plates (Costar) at 1.4×10e4 cells/20 μL medium/well. The cells were incubated with 20 μl/well of the assay buffer (HBSS, 0.1% BSA, 20 mM HEPES, 2.5 mM probenecid, pH 7.4) containing 8 μM fluo-4, AM, 0.08% pluronic acid at room temperature for 100 minutes. Fluorescence output was measured using FLIPR. Compounds were dissolved in DMSO and diluted to desired concentrations with assay buffer. 13.3 μL/well of compound solution was added.

T1 sequence (O14842 whole entry): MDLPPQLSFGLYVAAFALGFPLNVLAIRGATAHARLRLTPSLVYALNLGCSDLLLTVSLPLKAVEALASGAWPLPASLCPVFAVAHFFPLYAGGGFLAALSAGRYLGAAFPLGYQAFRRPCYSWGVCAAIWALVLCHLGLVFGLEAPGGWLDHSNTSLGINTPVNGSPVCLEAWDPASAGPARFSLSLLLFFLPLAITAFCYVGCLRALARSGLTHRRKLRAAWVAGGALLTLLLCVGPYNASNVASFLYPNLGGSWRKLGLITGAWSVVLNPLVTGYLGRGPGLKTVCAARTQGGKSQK

EC50 [1] [nM] | EC50 [2] [nM] | SMILES
297 | 13 | C[C@H](C(=O)O)[C@H](c1cccc(OCC2CN(c3ncccc3C(F)(F)F)C2)c1)C1CC1 [Example 21, (2S,3R)-3-Cyclopropyl-2-methyl-3-(3-((1-(3-(trifluoromethyl)pyridin-2-yl)azetidin-3-yl)methoxy)phenyl)propanoic acid]
2140 | 113 | O=C(O)C[C@H](c1cccc(OC2CC3(CCN(Cc4cc(C(F)(F)F)ccc4C(F)(F)F)C3)C2)c1)C1CC1 (single isomer, unassigned) [Example 5B]
2720 | 95 | CC1(COc2cccc([C@@H](CC(=O)O)C3CC3)c2)CN(Cc2cc(C(F)(F)F)ccc2C(F)(F)F)C1 [Example 6, (S)-3-(3-((1-(2,5-Bis(trifluoromethyl)benzyl)-3-methylazetidin-3-yl)methoxy)phenyl)-3-cyclopropylpropanoic acid]
967 | 22 | O=C(O)C[C@H](c1cccc(OCC2(F)CN(Cc3cc(C(F)(F)F)ccc3C(F)(F)F)C2)c1)C1CC1 [Example 11, (S)-3-(3-((1-(2,5-Bis(trifluoromethyl)benzyl)-3-fluoroazetidin-3-yl)methoxy)phenyl)-3-cyclopropylpropanoic acid]
613 | 21 | C[C@H](C(=O)O)[C@H](c1cccc(OCC2CN(Cc3cc(C(F)(F)F)ccc3C(F)(F)F)CCO2)c1)C1CC1 (some centres unmarked) [Example 28]
55 | 1.5 | C[C@H](C(=O)O)[C@H](c1cccc(OC[C@@H]2CCN(Cc3cc(C(F)(F)F)ccc3C(F)(F)F)C2)c1)C1CC1 [Example 26]
956 | 26 | C[C@H](C(=O)O)[C@H](c1cccc(OCC2CC(NCc3cc(C(F)(F)F)ccc3C(F)(F)F)C2)c1)C1CC1 (stereo partly drawn) [Example 14, (2S,3R)-3-(3-((3-((2,5-Bis(trifluoromethyl)benzyl)amino)cyclobutyl)methoxy)phenyl)-3-cyclopropyl-2-methylpropanoic acid]
1040 | 72 | O=C(O)C[C@H](c1cccc(OC2CCN(Cc3cc(C(F)(F)F)ccc3C(F)(F)F)C2)c1)C1CC1 (stereo partly drawn) [Example 23, (3S)-3-(3-((1-(2,5-Bis(trifluoromethyl)benzyl)pyrrolidin-3-yl)oxy)phenyl)-3-cyclopropylpropanoic acid]
7.6 | 0.3 | CC(c1cc(C(F)(F)F)ccc1C(F)(F)F)N1CC(COc2cccc([C@H](C3CC3)[C@H](C)C(=O)O)c2)C1 (some centres unmarked) [Example 27]
904 | 7.3 | CC(c1ccccc1C(F)(F)F)N1CC(COc2cccc([C@@H](CC(=O)O)C3CC3)c2)C1 (some centres unmarked) [Example 55]
1020 | 142 | O=C(O)C[C@H](c1cccc(OC2CCN(Cc3cc(C(F)(F)F)ccc3C(F)(F)F)CC2)c1)C1CC1 [Example 48]
2610 | 85 | CC1(C)CN(Cc2cc(C(F)(F)F)ccc2C(F)(F)F)CC1COc1cccc([C@@H](CC(=O)O)C2CC2)c1 (stereo partly drawn) [Example 22, (3S)-3-(3-((1-(2,5-Bis(trifluoromethyl)benzyl)-4,4-dimethylpyrrolidin-3-yl)methoxy)phenyl)-3-cyclopropylpropanoic acid]
5640 | 162 | CC(c1ccccc1Cl)N1CC(COc2cccc([C@@H](CC(=O)O)C3CC3)c2)C1 (some centres unmarked) [Example 52]
527 | 184 | CC(c1cc(C(F)(F)F)ccc1Cl)N1CC(COc2cccc([C@@H](CC(=O)O)C3CC3)c2)C1 (some centres unmarked) [Example 60]
279 | 33 | C[C@H](C(=O)O)[C@H](c1cccc(OCC2CN(c3cccc(C(F)(F)F)n3)C2)c1)C1CC1 [Example 30]

SMILES | EC50 [1] [nM] | EC50 [2] [nM]
C[C@H](C(=O)O)[C@H](c1cccc(OCC2CCN(Cc3cc(C(F)(F)F)ccc3C(F)(F)F)CC2)c1)C1CC1 [Example 31] | 77 | 1
